Target: T1, eGFP-Linker-CBD (CBD domain of Penicillium crustosum endoglucanase EGL1) (Penicillium crustosum, UniProt U6A8H3)
T1 construct: N-terminal eGFP fusion in pET-28a, Ni-column, E. coli BL21(DE3)
T1 sequence (U6A8H3 301-459): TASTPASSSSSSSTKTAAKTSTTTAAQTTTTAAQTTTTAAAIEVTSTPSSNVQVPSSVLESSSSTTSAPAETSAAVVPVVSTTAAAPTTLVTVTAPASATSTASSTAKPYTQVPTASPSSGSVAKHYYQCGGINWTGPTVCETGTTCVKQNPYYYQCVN
Experiment: isothermal titration calorimetry
Conditions: 20 mM Tris-HCl pH 7.5, 50 mM NaCl; 25 °C; multi-site binding model; unit not given

For OC[C@H]1O[C@@H](O[C@H]2[C@H](O)[C@@H](O)[C@H](O[C@H]3[C@H](O)[C@@H](O)[C@H](O[C@H]4[C@H](O)[C@@H](O)[C@H](O[C@H]5[C@H](O)[C@@H](O)C(O)O[C@@H]5CO)O[C@@H]4CO)O[C@@H]3CO)O[C@@H]2CO)[C@H](O)[C@@H](O)[C@@H]1O (stereo partly shown) [cellopentose], which Ka is on record?
The Ka was 2.3E4.

— publication PMC5419506, “Aromatic amino acids in the cellulose binding domain of Penicillium crustosum endoglucanase EGL1 differentially contribute to the cellulose affinity of the enzyme” (PLoS ONE, 2017)
